In ChEMBL document CHEMBL1158320, “Antiandrogenic natural Diels--Alder-type adducts from Brosimum rubescens” (J Nat Prod, 1997):
Activity calls are given as the source filed them. The calls are words filed in the database; no cut-off is given here.

Assays:
Conditions in all cases: Prostate gland
[1] = species on record: Rattus norvegicus; assay: Inhibition of 5alpha reductase in Wistar rat ventral prostate at 50 ug/mL by radiochromatography; type: tissue-based
[2] = species on record: Rattus norvegicus; assay: Inhibition of 5alpha reductase in Wistar rat ventral prostate at 100 ug/mL by radiochromatography; type: tissue-based
[3] = species on record: Rattus norvegicus; assay: Inhibition of 5alpha reductase in Wistar rat ventral prostate at 200 ug/mL by radiochromatography; type: tissue-based
[4] = molecular target: T1, Androgen receptor (Rattus norvegicus) (UniProt P15207); assay: Displacement of [3H]dihydrotestosterone from androgen receptor in Wistar rat ventral prostate at 50 ug/mL by liquid scintillation counting; type: tissue-based
T1 sequence (whole entry): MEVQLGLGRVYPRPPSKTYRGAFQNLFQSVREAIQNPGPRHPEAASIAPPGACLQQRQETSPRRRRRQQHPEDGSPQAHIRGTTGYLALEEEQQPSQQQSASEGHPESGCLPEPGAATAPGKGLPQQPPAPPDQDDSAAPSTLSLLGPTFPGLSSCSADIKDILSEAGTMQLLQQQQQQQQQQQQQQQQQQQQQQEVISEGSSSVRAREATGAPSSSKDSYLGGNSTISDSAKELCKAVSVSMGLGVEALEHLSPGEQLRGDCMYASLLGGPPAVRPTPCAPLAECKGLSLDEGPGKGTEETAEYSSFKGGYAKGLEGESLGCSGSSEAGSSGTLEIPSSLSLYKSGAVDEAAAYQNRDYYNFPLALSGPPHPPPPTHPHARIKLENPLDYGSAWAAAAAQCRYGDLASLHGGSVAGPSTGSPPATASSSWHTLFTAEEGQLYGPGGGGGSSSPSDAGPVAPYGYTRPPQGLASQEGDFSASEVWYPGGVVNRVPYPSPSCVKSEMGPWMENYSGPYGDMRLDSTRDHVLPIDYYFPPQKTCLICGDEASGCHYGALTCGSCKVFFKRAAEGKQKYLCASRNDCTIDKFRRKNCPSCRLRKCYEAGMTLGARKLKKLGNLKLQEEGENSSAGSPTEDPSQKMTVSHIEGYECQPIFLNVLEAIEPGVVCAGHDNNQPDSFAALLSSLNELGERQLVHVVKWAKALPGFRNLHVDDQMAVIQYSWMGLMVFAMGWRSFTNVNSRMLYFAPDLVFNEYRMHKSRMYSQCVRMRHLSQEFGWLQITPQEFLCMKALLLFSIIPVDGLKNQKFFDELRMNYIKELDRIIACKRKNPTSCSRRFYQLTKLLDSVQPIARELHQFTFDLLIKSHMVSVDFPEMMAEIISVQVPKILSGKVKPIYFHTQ

[5] = molecular target: T1, Androgen receptor (Rattus norvegicus); assay: Displacement of [3H]dihydrotestosterone from androgen receptor in Wistar rat ventral prostate at 100 ug/mL by liquid scintillation counting; type: tissue-based
[6] = molecular target: T1, Androgen receptor (Rattus norvegicus); assay: Displacement of [3H]dihydrotestosterone from androgen receptor in Wistar rat ventral prostate at 200 ug/mL by liquid scintillation counting

| Compound | inhibition [1] | inhibition [2] | inhibition [3] | inhibition [4] | inhibition [5] | inhibition [6] | Activity [1] |
| --- | --- | --- | --- | --- | --- | --- | --- |
| COc1cc(O)ccc1[C@H]1Oc2cc3oc(=O)ccc3cc2[C@@H]2C=C(C)C[C@@H](c3ccc(O)cc3OC)[C@H]12 | 8.6% | 49.9% | 72.3% | 60.3% | 70.9% | 62% |  |
| COc1cc(O)ccc1[C@H]1Oc2cc3oc(=O)ccc3cc2[C@@H]2C=C(C)C[C@@H](c3ccc(O)cc3)[C@H]12 | 5.4% | 28.8% | 59.2% | 62.5% | 73.3% | 78.6% |  |
| COc1cc(O)ccc1[C@@H]1CC(C)=C[C@H]2c3cc4ccc(=O)oc4cc3O[C@H](c3ccc(O)c(O)c3)[C@H]21 | 0.2% | 8.4% | 19.8% |  | -8.6% |  |  |
| COc1cc(O)ccc1[C@@H]1CC(C)=C[C@H]2c3cc4ccc(=O)oc4cc3O[C@H](c3ccc(O)cc3)[C@H]21 | 3.4% | 44.1% | 69.2% | 56.5% | 57.5% | 61.5% |  |
| CC[C@H]1C[C@H]2[C@@H]3CCC4=CC(=O)CC[C@@H]4[C@H]3CC[C@]2(C)[C@H]1O |  |  |  |  |  |  | Active |
| COc1cc(O)ccc1[C@H]1Oc2cc3oc(=O)ccc3cc2[C@@H]2C=C(C)C[C@@H](c3ccc(O)c(O)c3)[C@H]12 | 0.3% | 4.8% | 5.2% |  |  |  |  |
